The text below walks through data of US8450313B2, “2,3-diaryl- or heteroaryl-substituted 1,1,1-trifluoro-2-hydroxypropyl compounds” (Hoffmann-La Roche Inc., priority 2009, dated 2013).

By Ki is commonly meant a dissociation constant, usually derived from enzyme kinetics or from competition with a known ligand.

The structures appear in SMILES notation.

This assay concerns the target T1, full length human recombinant glucocorticoid receptor (Homo sapiens, UniProt P04150).
T1 construct: It contains some partially purified full length human recombinant glucocorticoid receptor; purchased Panvera/Invitrogen PV4302
T1 sequence (P04150 1-777): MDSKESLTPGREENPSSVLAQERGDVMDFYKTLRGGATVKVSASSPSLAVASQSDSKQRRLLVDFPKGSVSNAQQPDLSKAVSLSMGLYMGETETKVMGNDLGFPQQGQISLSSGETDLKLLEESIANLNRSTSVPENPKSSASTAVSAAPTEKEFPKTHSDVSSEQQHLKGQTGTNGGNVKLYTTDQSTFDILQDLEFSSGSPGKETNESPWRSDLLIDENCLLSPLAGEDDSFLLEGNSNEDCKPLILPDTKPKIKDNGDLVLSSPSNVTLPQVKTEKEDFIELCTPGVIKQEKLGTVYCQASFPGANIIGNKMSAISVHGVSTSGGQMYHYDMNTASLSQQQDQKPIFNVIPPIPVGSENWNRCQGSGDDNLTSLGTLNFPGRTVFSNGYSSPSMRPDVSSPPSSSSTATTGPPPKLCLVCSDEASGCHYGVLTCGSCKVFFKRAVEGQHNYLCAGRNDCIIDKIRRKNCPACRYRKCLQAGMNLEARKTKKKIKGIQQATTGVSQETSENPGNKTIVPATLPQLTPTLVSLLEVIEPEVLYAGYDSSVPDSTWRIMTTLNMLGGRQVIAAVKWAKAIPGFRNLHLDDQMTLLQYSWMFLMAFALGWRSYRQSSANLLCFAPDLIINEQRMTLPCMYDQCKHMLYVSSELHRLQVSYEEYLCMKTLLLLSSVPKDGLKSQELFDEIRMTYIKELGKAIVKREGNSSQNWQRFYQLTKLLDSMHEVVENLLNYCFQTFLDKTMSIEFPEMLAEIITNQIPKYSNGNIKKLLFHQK
Briefly: Glucocorticoid Receptor Binding Assay (Glucocorticoid Receptor Competitor Assay far red kit, fluorescence polarization). The conditions noted are these: competition with fluorescent GR ligand Fluormone GS Far Red, 3 hours at 22° C., pH 7.4; Ki calculated from IC50 by Cheng-Prusoff. Here is the method: Glucocorticoid Receptor Binding Assay
The ability of the substances to bind to the glucocorticoid receptor was determined with the help of a commercial Glucocorticoid Receptor Competitor Assay far red kit provided by Panvera/Invitrogen (PV4302). This kit is used as provided by the supplier. It contains some partially purified full length human recombinant glucocorticoid receptor, a coactivator related GR stabilizing peptide, a tight-binding fluorescent GR ligand Fluormone™ GS Far Red as labeled tracer and a screening buffer. All reagents are prepared and the assay is run according to the recommendations of the kit manufacturer.
Briefly, the GR stabilizing peptide and the human recombinant glucocorticoid receptor are both diluted with the screening buffer (pH 7.4) and are gently mixed (no vortexing) just before the assay and kept on ice until use. The fluorescent-labeled ligand is also diluted with the screening buffer just before the assay and kept on ice until use. The substances to test are pre-diluted in pure DMSO then some water is added to get an intermediate 4.2% DMSO stock solution. Ten microliter of the intermediate stock solution is gently mixed with 5 μA of diluted fluorescent-labeled ligand and 5 μl of diluted human recombinant glucocorticoid receptor in a 384-well plate (low volume, ultraclear, glass plate from Greiner ref 788896). The plate is centrifuged, sealed and incubated for 3 hours at 22° C. in the dark. The polarized fluorescence is measured with a Zeiss-HTS reader or any equivalent equipment (610-660 nm).
All compounds were tested to determine IC50 in a serial dilution experiment. The concentration at which 50% inhibition of the fluorescent GR ligand Fluormone™ GS Far Red is obtained (the IC50) is determined after fitting with a sigmoidal dose-response model of a plot of the logarithm of the concentration versus percent inhibition measured for the different concentrations. Ki's were calculated from IC50 based on Cheng-Prusoff equation (Cheng, Y, Prusoff, W H (1973) Biochem Pharmacol 22, 3099-3108): Ki=IC50/[1+D/Kd] wherein D is the concentration of the fluorescent ligand and Kd is the binding constant for the fluorescent ligand binding to the receptor under the conditions used in the competition experiment.
Consider `COC(=O)c1ccc(-c2ccc([C@@H](C)[C@@](O)(c3ccc4c(c3)NC(=O)CO4)C(F)(F)F)c(Cl)c2)cc1F` (relative stereo) [Example 71, 3′-Chloro-3-fluoro-4′-[3,3,3-trifluoro-2-hydroxy-1-methyl-2-(3-oxo-3,4-dihydro-2H-benzo[1,4]oxazin-6-yl)-propyl]-biphenyl-4-carboxylic acid methyl ester], for which the inhibition constant (Ki) is 28.1 nM.

For `C[C@H](c1ccc(Oc2ccc(C(=O)O)c(Cl)n2)cc1Cl)[C@@](O)(c1ccc2c(c1)N(C)C(=O)CO2)C(F)(F)F` (racemic) [Example 63, 2-Chloro-6-{3-chloro-4-[3,3,3-trifluoro-2-hydroxy-1-methyl-2-(4-methyl-3-oxo-3,4-dihydro-2H-benzo[1,4]oxazin-6-yl)-propyl]-phenoxy}-nicotinic acid], the inhibition constant (Ki) is 0.8 nM.

Turning to `C[C@H](c1ccc(Oc2nc(C(F)(F)F)ccc2C(=O)O)cc1Cl)[C@@](O)(c1ccc2c(c1)n(C)c(=O)n2C)C(F)(F)F` (stereo in doubt) [Example 111, 2-{3-Chloro-4-[2-(1,3-dimethyl-2-oxo-2,3-dihydro-1H-benzoimidazol-5-yl)-3,3,3-trifluoro-2-hydroxy-1-methyl-propyl]-phenoxy}-6-trifluoromethyl-nicotinic acid], the Ki was 36 nM.

`C[C@@H](c1ccc(-c2ccc(F)c(OCC(=O)O)c2)cc1Cl)[C@](O)(c1cc(F)c2c(c1)N(C)C(=O)CO2)C(F)(F)F` (stereo in doubt) [Example 48, {3′-Chloro-4-fluoro-4′-[3,3,3-trifluoro-2-(8-fluoro-4-methyl-3-oxo-3,4-dihydro-2H-benzo[1,4]oxazin-6-yl)-2-hydroxy-1-methyl-propyl]-biphenyl-3-yloxy}-acetic acid]: the Ki was 1.3 nM.

Regarding `C[C@@H](c1cc(OCc2ccc(C(=O)O)cc2)ccc1Cl)[C@](O)(c1ccc2c(c1)N(C)C(=O)CO2)C(F)(F)F` (relative stereo) [Example 2, 4-{4-Chloro-3-[3,3,3-trifluoro-2-hydroxy-1-methyl-2-(4-methyl-3-oxo-3,4-dihydro-2H-benzo[1,4]oxazin-6-yl)-propyl]-phenoxymethyl}-benzoic acid], the inhibition constant Ki is 2 nM.

On to `C[C@H](c1ccc(Oc2ccc(C(=O)O)c(Cl)n2)cc1Cl)[C@@](O)(c1ccc2c(c1)OCC(=O)N2C)C(F)(F)F` (relative stereo) [Example 158, 2-Chloro-6-{3-chloro-4-[3,3,3-trifluoro-2-hydroxy-1-methyl-2-(4-methyl-3-oxo-3,4-dihydro-2H-benzo[1,4]oxazin-7-yl)-propyl]-phenoxy}-nicotinic acid], for which the Ki is 2.2 nM.

With `COC(=O)c1ccc(Oc2ccc([C@H](C)[C@](O)(c3cc(C)c(C#N)c(C)c3)C(F)(F)F)c(Cl)c2)cc1Cl` (stereo in doubt) [Example 143, 2-Chloro-4-{3-chloro-4-[2-(4-cyano-3,5-dimethyl-phenyl)-3,3,3-trifluoro-2-hydroxy-1-methyl-propyl]-phenoxy}-benzoic acid methyl ester], the Ki is 1.7 nM.

With `COc1cc(Oc2ccc([C@@H](C)[C@@](O)(c3ccc4c(c3)n(C)c(=O)n4C)C(F)(F)F)c(Cl)c2)ccc1C(=O)O` (relative stereo) [Example 97, 4-{3-Chloro-4-[2-(1,3-dimethyl-2-oxo-2,3-dihydro-1H-benzoimidazol-5-yl)-3,3,3-trifluoro-2-hydroxy-1-methyl-propyl]-phenoxy}-2-methoxy-benzoic acid], the inhibition constant (Ki) is 5 nM.

For the molecule `C[C@@H](c1ccc(Oc2ccc(C(=O)O)cn2)cc1Cl)[C@](O)(c1ccc2c(c1)n(C)c(=O)n2C)C(F)(F)F` (stereo in doubt) [Example 101, 6-{3-Chloro-4-[2-(1,3-dimethyl-2-oxo-2,3-dihydro-1H-benzoimidazol-5-yl)-3,3,3-trifluoro-2-hydroxy-1-methyl-propyl]-phenoxy}-nicotinic acid], the inhibition constant (Ki) is 1.1 nM.

Take `COC(=O)c1ccc(-c2ccc([C@@H](C)[C@@](O)(c3ccc4oc(=O)n(C)c4c3)C(F)(F)F)c(Cl)c2)cc1OC` (relative stereo) [Example 131, 3′-Chloro-3-methoxy-4′-[3,3,3-trifluoro-2-hydroxy-1-methyl-2-(3-methyl-2-oxo-2,3-dihydro-benzooxazol-5-yl)-propyl]-biphenyl-4-carboxylic acid methyl ester]: the Ki is 1.2 nM.

Take `C[C@H](c1ccc(-c2ccc(C(=O)O)c(Cl)c2)cc1Cl)[C@@](O)(c1ccc2oc(=O)n(C)c2c1)C(F)(F)F` (relative stereo) [Example 124, 3,3′-Dichloro-4′-[3,3,3-trifluoro-2-hydroxy-1-methyl-2-(3-methyl-2-oxo-2,3-dihydro-benzooxazol-5-yl)-propyl]-biphenyl-4-carboxylic acid]: the Ki is 0.3 nM.

`C[C@H](c1ccc(-c2ccc(C(=O)O)c(Cl)c2)cc1Cl)[C@@](O)(c1ccc2c(c1)n(C)c(=O)n2C)C(F)(F)F` (stereo in doubt) [Example 76, 3,3′-Dichloro-4′-[2-(1,3-dimethyl-2-oxo-2,3-dihydro-1H-benzoimidazol-5-yl)-3,3,3-trifluoro-2-hydroxy-1-methyl-propyl]-biphenyl-4-carboxylic acid]: the inhibition constant (Ki) is 1 nM.

For `C[C@H](c1ccc(-c2ccc(C(=O)O)nc2)cc1Cl)[C@@](O)(c1ccc2oc(=O)n(C)c2c1)C(F)(F)F` (relative stereo) [Example 189, 5-{3-Chloro-4-[3,3,3-trifluoro-2-hydroxy-1-methyl-2-(3-methyl-2-oxo-2,3-dihydro-benzooxazol-5-yl)-propyl]-phenyl}-pyridine-2-carboxylic acid], the Ki was 6.6 nM.

In the case of `C[C@@H](c1cc(Oc2ccc(C(=O)O)c(F)c2)ccc1Cl)[C@](O)(c1ccc2c(c1)N(C)C(=O)CO2)C(F)(F)F` (relative stereo) [Example 14, 4-{4-Chloro-3-[3,3,3-trifluoro-2-hydroxy-1-methyl-2-(4-methyl-3-oxo-3,4-dihydro-2H-benzo[1,4]oxazin-6-yl)-propyl]-phenoxy}-2-fluoro-benzoic acid], the Ki is 3.9 nM.

Consider `C[C@H](c1ccc(Oc2ncc(C(=O)O)cc2Cl)cc1Cl)[C@@](O)(c1ccc(C#N)cc1)C(F)(F)F` (relative stereo) [Example 155, 5-Chloro-6-{3-chloro-4-[2-(4-cyano-phenyl)-3,3,3-trifluoro-2-hydroxy-1-methyl-propyl]-phenoxy}-nicotinic acid], for which the inhibition constant (Ki) was 8.9 nM.

On to `C[C@H](c1ccc(-c2ccc(C(=O)O)c(F)c2)cc1Cl)[C@@](O)(c1ccc2oc(=O)n(C)c2c1)C(F)(F)F` (racemic) [Example 118, 3′-Chloro-3-fluoro-4′-[3,3,3-trifluoro-2-hydroxy-1-methyl-2-(3-methyl-2-oxo-2,3-dihydro-benzooxazol-5-yl)-propyl]-biphenyl-4-carboxylic acid], for which the Ki is 1 nM.

For `C[C@H](c1ccc(Oc2cccc(OCC(=O)O)c2)cc1Cl)[C@@](O)(c1ccc2c(c1)n(C)c(=O)n2C)C(F)(F)F` (stereo in doubt) [Example 94, (3-{3-Chloro-4-[2-(1,3-dimethyl-2-oxo-2,3-dihydro-1H-benzoimidazol-5-yl)-3,3,3-trifluoro-2-hydroxy-1-methyl-propyl]-phenoxy}-phenoxy)-acetic acid], the Ki was 0.3 nM.

Turning to `C[C@H](c1ccc(Oc2ccc(C(=O)O)c(Cl)c2)cc1Cl)[C@@](O)(c1ccc2c(c1)N(C)C(=O)CO2)C(F)(F)F` [Example 218, 2-Chloro-4-{3-chloro-4-[(1R,2R)-3,3,3-trifluoro-2-hydroxy-1-methyl-2-(4-methyl-3-oxo-3,4-dihydro-2H-benzo[1,4]oxazin-6-yl)-propyl]-phenoxy}-benzoic acid], the inhibitory constant (Ki) was 119 nM.
